Data from US12134607B2, “Crystals of tetrahydronaphthyl urea derivative” (MOCHIDA PHARMACEUTICAL CO., LTD., priority 2017, dated 2024).
pIC50: −log10 of the molar value. In brackets after ≈: the same amount, converted by molar mass.

Tests used:
human TrkA protein = human TrkA protein (Homo sapiens (Human), UniProt P04629); experiment: Evaluation on binding activity against human TrkA protein (TrkA LanthaScreen Eu Kinase Binding Assay)
Protocol: (Pharmacology Experiment 1): Evaluation on Binding Activity Against Human TrkA Protein
Measurements were made using TrkA LanthaScreen™ Eu Kinase Binding Assay (ThermoFisher SCIENTIFIC). Into 384 well plates (Corning), a 2.5 μL solution having each concentration of the test compound (1) diluted in Kinase buffer (ThermoFisher SCIENTIC) and a 2.5 μL having 15 nM TrkA enzyme (ThermoFisher SCIENTIFIC) were added. In addition, a 5 μL having 3 nM Eu-anti-His Tag […] (ThermoFisher SCIENTIFIC) and 5 μL having 30 nM Kinase™ Tracer 236 (ThermoFisher SCIENTIFIC) were added, and allowed to react at room temperature for 60 minutes. After the reaction, the fluorescence ratio was calculated as the binding amount of the test compound (1) with TrkA enzyme, by measuring the fluorescence intensity (Emission wavelength 615 nm) and TR-FRET (Emission wavelength 665 nm) of Europium by the excitation wavelength of 340 nm using EnVision 2100 (PerkinElmer). […]
The inhibitory activity of each crystal of the test compound (1), which is 1-((1R,2R)-2-hydroxy-4,4-dimethyl-1,2,3,4-tetrahydronaphthalen-1-yl)-3-(5-methyl-6-(2-methylpyrimidin-5-yl)-2-phenylpyridin-3-yl)urea can be assessed by IC50 value.

[1] = Safety observation in pharmacology experiments 3 and 4 in rats; type: in vivo; conditions: oral administration
Protocol: (Pharmacology Experiment 3): Inhibitory Effect on NGF-Induced Vascular Permeability Increase in Rats
The inhibitory activity against TrkA in vivo was evaluated. Clipped back male Sprague-Dawley rats (CD(SD)IGS rats, Charles River, Japan) were orally administered test compound (1) dissolved or suspended in a solvent (dose volume: 5 mL/kg). Vehicle controls were treated orally with vehicle. […] A 200 μL of the formamide extract was transferred to a 96-well plate (Nunc), and the absorbance (wavelength: 620 nm) of Evans blue extracted into formamide was measured using SpectraMax (Molecular Device). […]
The analgesic effect of the test compound (1) was evaluated in a CFA-induced rat model. […]
Measurements were made 7 days after CFA administration. After calming the animals to the measurement environment for at least 1 hour, the footpads were stimulated with von Frey filaments according to the Dixon up-down method (Journal of Neuroscience Methods, Vol. 53, pp. 55-63, 1994), and then 50% threshold (g) was calculated by the following equation. […]

[2] = Determination of equilibrium solubility in phosphate buffer solution with pH 6.8; type: physicochemical; conditions: pH 6.8 phosphate buffer, 37° C., mean value of three measurements
Source text: (Test Example 1) Determination of Equilibrium Solubility (Determination of Solubility in Phosphate Buffer Solution with pH 6.8)
Each of the equilibrium solubilities (solubility in phosphate buffer solution with pH 6.8) of Type I (Example 2), III (Example 3), V (Example 4) and VI crystals (Example 5) of 1-((1R,2R)-2-hydroxy-4,4-dimethyl-1,2,3,4-tetrahydronaphthalen-1-yl)-3-(5-methyl-6-(2-methylpyrimidin-5-yl)-2-phenylpyridin-3-yl)urea obtained in the above (Example 2) to (Example 5) was determined as follows:
Water was added a weighed potassium dihydrogen phosphate of 2.7 g to make 100 mL volume to prepare 0.2 mol/L potassium dihydrogen phosphate solution. Water was added a weighed disodium hydrogen phosphate […] of 7.2 g to make 100 mL volume to prepare 0.2 mol/L disodium hydrogen phosphate solution. A pH 6.8 phosphate buffer solution was prepared by diluting a mixture of 0.2 mol/L potassium dihydrogen phosphate solution (14.8 mL) and 0.2 mol/L disodium hydrogen phosphate solution (10.0 mL) with water (173.6 mL).
Approximately 1 mg of the each crystal from (Example 2) to (Example 5) was weighed into a screw tube, and a pH 6.8 phosphate buffer solution (1 mL) was added. An isothermal shaker (M-BR-022UP) was used to incubate the sample at 37° C. and 1000 rpm for 24 hours. 100 μL solution were sampled at 1, 2, 6, and 24 hours after the start of incubation, and were filtered using a centrifuge (HITACHI, Himac cF 9RX, at 25° C., at 1500 rpm, for 30 seconds) with a filter (Millipore: Multiscreen, MSSLBPC10) so as to remove insoluble materials. A 20 μL of the filtrate was quantified, and diluted with a solution (180 μL, pH 9.0) of 20 vol % tetrahydrofuran and 80 vol % ammonium bicarbonate aqueous solution (10 mM). A 10 μL of the prepared solution was quantified, and diluted with a solution (190 μL, pH 9.0) of 20 vol % tetrahydrofuran and 80 vol % ammonium bicarbonate aqueous solution (10 mM). The prepared solution was analyzed by ultra performance liquid chromatography (UPLC) under the following measurement conditions, and the concentration of the compound in the solution was calculated based on a previously prepared calibration curve. Three times of measurements were made for each example compound, and the mean values and standard deviations of the three measurements are shown as a result in Table 6.
<UPLC measurement conditions> Equipment: ACQUITY UPLC H-Class (Waters) Detector: PDA (200-500 nm) Column: BEH C18 2.1×50 mm Measurement wavelength: 270 nm Column temperature: 40° C. Injection amount: 10 μL Mobile phase: • Solvent A, acetonitrile; • Solvent B, 10 mM ammonium bicarbonate aqueous solution (pH 9.0) Gradient conditions: […]

Storage stability test = type: physicochemical
Protocol: For the stability test, approximately 20 mg of the test sample was stored at 25° C./60% RH or at 40° C./75% RH in open or closed condition for 1 month using a small environmental tester SH-641 (manufactured by Espec), and changes in purity and in crystalline form were observed.
For purity measurement, equipment of Waters ACQUITY UPLC H-Class (manufactured by Waters) and column of Waters ACQUITY BEH C18 (particle diameter […], size 2.1×50 mm) are used. For the mobile phase, 10 mmol/L ammonium bicarbonate buffer pH 9.0 and acetonitrile were used; and the test sample solution at 100 μg/mL in the mixture solvent of THF (tetrahydrofuran):10 mmol/L ammonium bicarbonate buffer (20:80) was prepared.
(Test Example 2) Storage Stability Test
The type I (Example 2), III (Example 3), V (Example 4) and VI (Example 5) crystals (each about 20 mg) of 1-((1R,2R)-2-hydroxy-4,4-dimethyl-1,2,3,4-tetrahydronaphthalen-1-yl)-3-(5-methyl-6-(2-methylpyrimidin-5-yl)-2-phenylpyridin-3-yl)urea obtained in the above Examples 2 to 5 were stored in glass bottles under the respective conditions described in Table 7. After completion of the storage period, the retrieved sample was confirmed on the purity by high performance liquid chromatography and on the crystal form by powder X-ray diffraction analysis as in the Examples.

[3] = Photostability test according to ICH Q1B; type: physicochemical
Protocol: (Test Example 3) Photostability Test
The type I (Example 2), III (Example 3), V (Example 4), and VI (Example 5) crystals (each about 20 mg) of 1-((1R,2R)-2-hydroxy-4,4-dimethyl-1,2,3,4-tetrahydronaphthalen-1-yl)-3-(5-methyl-6-(2-methylpyrimidin-5-yl)-2-phenylpyridin-3-yl)urea obtained in the above Examples 2 to 5 were placed in a transparent plastic container and covered, and were subjected to photostability test according to the ICH Q1B (Guidelines on Photostability Testing of New Active Substances and Medicinal Products) described in Table 8 (Here, the photostability test samples were stored at about 25° C. under separate lamps which respectively emits visible light and UV-A light so that the total light exposure should be 1.2 million lux hours and 200 W hours/m^2 or more, respectively. A 5-day study should be designated as “0.5 ICH” and a 10-day study as “1 ICH”). […] After completion of the test, the retrieved sample was confirmed on the purity by high performance liquid chromatography and on the crystal form by powder X-ray diffraction analysis as in the Examples.

[4] = 25° C./60% RH, closed for 1 month
[5] = 25° C./60% RH, open for 1 month
[6] = 40° C./75% RH, closed for 1 month
[7] = 40° C./75% RH, open for 1 month
[8] = Shielded from light by aluminum foil, 0.5 ICH
[9] = Shielded from light by aluminum foil, 1 ICH
[10] = Shielded from light by aluminum foil, Before the test

Sequence of human TrkA protein (P04629 33-796): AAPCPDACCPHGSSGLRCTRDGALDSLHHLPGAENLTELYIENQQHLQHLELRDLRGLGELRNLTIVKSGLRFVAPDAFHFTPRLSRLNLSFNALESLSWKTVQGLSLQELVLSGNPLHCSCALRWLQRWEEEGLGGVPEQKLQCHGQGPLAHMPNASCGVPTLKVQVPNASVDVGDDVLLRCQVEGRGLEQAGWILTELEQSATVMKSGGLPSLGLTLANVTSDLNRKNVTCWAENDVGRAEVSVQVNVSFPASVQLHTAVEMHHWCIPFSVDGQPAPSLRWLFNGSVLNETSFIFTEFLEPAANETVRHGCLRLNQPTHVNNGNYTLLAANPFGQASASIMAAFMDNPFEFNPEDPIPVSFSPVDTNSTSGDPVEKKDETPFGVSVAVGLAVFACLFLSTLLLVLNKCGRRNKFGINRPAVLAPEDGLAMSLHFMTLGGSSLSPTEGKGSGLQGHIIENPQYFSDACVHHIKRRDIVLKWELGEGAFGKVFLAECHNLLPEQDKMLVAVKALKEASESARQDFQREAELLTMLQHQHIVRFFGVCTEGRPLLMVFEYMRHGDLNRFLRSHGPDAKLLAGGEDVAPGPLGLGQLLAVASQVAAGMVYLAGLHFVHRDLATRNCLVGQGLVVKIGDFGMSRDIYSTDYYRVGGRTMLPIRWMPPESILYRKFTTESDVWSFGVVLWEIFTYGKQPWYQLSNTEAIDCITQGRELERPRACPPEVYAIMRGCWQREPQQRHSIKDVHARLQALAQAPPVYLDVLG

Structure (SMILES): Cc1ncc(-c2nc(-c3ccccc3)c(NC(=O)N[C@@H]3c4ccccc4C(C)(C)C[C@H]3O)cc2C)cn1 [Example 1, 1-((1R,2R)-2-hydroxy-4,4-dimethyl-1,2,3,4-tetrahydronaphthalen-1-yl)-3-(5-methyl-6-(2-methylpyrimidin-5-yl)-2-phenylpyridin-3-yl)urea]
- TrkA inhibitory effect (human TrkA protein; result in words): excellent
- Abnormalities in the safety test [1]: no abnormalities

Structure (SMILES): Cc1ncc(-c2nc(-c3ccccc3)c(NC(=O)N[C@@H]3c4ccccc4C(C)(C)C[C@H]3O)cc2C)cn1 [Example 3, 1-((1R,2R)-2-hydroxy-4,4-dimethyl-1,2,3,4-tetrahydronaphthalen-1-yl)-3-(5-methyl-6-(2-methylpyrimidin-5-yl)-2-phenylpyridin-3-yl)urea]
- pIC50 (human TrkA protein; TrkA enzyme, Kinase Tracer 236, TR-FRET): ≥ 7.30
- Solubility [2]: 66.0 µg/mL (≈ 134 µM)
- Chemical purity (%) (Storage stability test; [4]): 100.00%
- Crystalline form after completion of storage period (Storage stability test; [4]): Type III crystal
- Chemical purity (%) (Storage stability test; [5]): 100.00%
- Crystalline form after completion of storage period (Storage stability test; [5]): Type III crystal
- Chemical purity (%) (Storage stability test; [6]): 100.00%
- Crystalline form after completion of storage period (Storage stability test; [6]): Type III crystal
- Chemical purity (%) (Storage stability test; [7]): 100.00%
- Crystalline form after completion of storage period (Storage stability test; [7]): Type III crystal
- Chemical purity (%) (Storage stability test; Before the test): 100.00%
- Crystalline form after completion of storage period (Storage stability test; Before the test): Type III crystal
- Chemical purity (%) ([3]; Exposure, 0.5 ICH (5-day)): 100.0%
- Crystalline form after completion of storage period ([3]; Exposure, 0.5 ICH (5-day)): Type III crystal
- Chemical purity (%) ([3]; Exposure, 1 ICH (10-day)): 100.0%
- Crystalline form after completion of storage period ([3]; Exposure, 1 ICH (10-day)): Type III crystal
- Chemical purity (%) ([3]; Exposure, Before the test): 100.0%
- Crystalline form after completion of storage period ([3]; Exposure, Before the test): Type III crystal
- Chemical purity (%) [3, 8]: 100.0%
- Crystalline form after completion of storage period [3, 8]: Type III crystal
- Chemical purity (%) [3, 9]: 100.0%
- Crystalline form after completion of storage period [3, 9]: Type III crystal
- Chemical purity (%) [3, 10]: 100.0%
- Crystalline form after completion of storage period [3, 10]: Type III crystal
- Stability against light ([3]; result in words, listed as type III crystal): stable against light
